Source: US20180243273A1, “Composition for Intravesical Administration for Treating Bladder Pain” (priority 2017, published 2018)

Assay: Storage of compositions with/without nitrogen-gassing and ascorbic acid, assay and impurities
Type: physicochemical
Settings: for Assay / Impurities: phosphate buffer
Method: A possible beneficial effect of nitrogen-gassing during manufacturing and storage was assessed. Selected compositions were manufactured by dissolution of API via stirring for 24 h and stored after treatment with/without nitrogen at 25° C. or 6° C. for up to 28 days.
The manufactured batches consisted of phosphate buffer and vitamin E TPGS and were compared to compositions containing ascorbic acid 1%, additionally. API was used at 0.01 wt.-%, 0.02 wt.-% or 0.04 w.-%. The compositions were saturated with API, where 10 mg, 20 mg or 40 mg were dissolved in 100 g buffer containing 0.5 wt.-%, wt.-1% or 2 wt.-% vitamin E TPGS, respectively. The compositions were transferred into polystyrene bottles and stored at 25° C. or 6° C. A part of the compositions was treated with nitrogen during manufacturing and gassed with nitrogen prior to sealing (see FIG. 18). The compositions were tested for assay and purity of API after manufacturing, as well as after 7, 14 and 28 days.

[1] = vitamin E TPGS 1%, no Asc., N2 +, API 0.02%, 25° C., t = 28 d
[2] = vitamin E TPGS 1%, no Asc., N2 +, API 0.02%, t = 0
[3] = vitamin E TPGS 1%, no Asc., N2 −, API 0.02%, 6° C., t = 7 d
[4] = vitamin E TPGS 1%, no Asc., N2 −, API 0.02%, 6° C., t = 14 d
[5] = vitamin E TPGS 1%, no Asc., N2 −, API 0.02%, 6° C., t = 28 d
[6] = vitamin E TPGS 1%, no Asc., N2 −, API 0.02%, 25° C., t = 7 d
[7] = vitamin E TPGS 1%, no Asc., N2 −, API 0.02%, 25° C., t = 14 d
[8] = vitamin E TPGS 1%, no Asc., N2 −, API 0.02%, 25° C., t = 28 d
[9] = vitamin E TPGS 1%, no Asc., N2 −, API 0.02%, t = 0
[10] = vitamin E TPGS 2%, Asc. 1%, N2 +, API 0.04%, 6° C., t = 7 d
[11] = vitamin E TPGS 2%, Asc. 1%, N2 +, API 0.04%, 6° C., t = 14 d
[12] = vitamin E TPGS 2%, Asc. 1%, N2 +, API 0.04%, 6° C., t = 28 d
[13] = vitamin E TPGS 2%, Asc. 1%, N2 +, API 0.04%, 25° C., t = 7 d
[14] = vitamin E TPGS 2%, Asc. 1%, N2 +, API 0.04%, 25° C., t = 14 d
[15] = vitamin E TPGS 2%, Asc. 1%, N2 +, API 0.04%, 25° C., t = 28 d
[16] = vitamin E TPGS 2%, Asc. 1%, N2 +, API 0.04%, t = 0
[17] = vitamin E TPGS 2%, Asc. 1%, N2 −, API 0.04%, 6° C., t = 7 d
[18] = vitamin E TPGS 2%, Asc. 1%, N2 −, API 0.04%, 6° C., t = 14 d
[19] = vitamin E TPGS 2%, Asc. 1%, N2 −, API 0.04%, 6° C., t = 28 d
[20] = vitamin E TPGS 2%, Asc. 1%, N2 −, API 0.04%, 25° C., t = 7 d
[21] = vitamin E TPGS 2%, Asc. 1%, N2 −, API 0.04%, 25° C., t = 14 d
[22] = vitamin E TPGS 2%, Asc. 1%, N2 −, API 0.04%, 25° C., t = 28 d
[23] = vitamin E TPGS 2%, Asc. 1%, N2 −, API 0.04%, t = 0
[24] = vitamin E TPGS 2%, no Asc., N2 +, API 0.04%, 6° C., t = 7 d
[25] = vitamin E TPGS 2%, no Asc., N2 +, API 0.04%, 6° C., t = 14 d
[26] = vitamin E TPGS 2%, no Asc., N2 +, API 0.04%, 6° C., t = 28 d
[27] = vitamin E TPGS 2%, no Asc., N2 +, API 0.04%, 25° C., t = 7 d
[28] = vitamin E TPGS 2%, no Asc., N2 +, API 0.04%, 25° C., t = 14 d
[29] = vitamin E TPGS 2%, no Asc., N2 +, API 0.04%, 25° C., t = 28 d
[30] = vitamin E TPGS 2%, no Asc., N2 +, API 0.04%, t = 0
[31] = vitamin E TPGS 2%, no Asc., N2 −, API 0.04%, 6° C., t = 7 d
[32] = vitamin E TPGS 2%, no Asc., N2 −, API 0.04%, 6° C., t = 14 d
[33] = vitamin E TPGS 2%, no Asc., N2 −, API 0.04%, 6° C., t = 28 d
[34] = vitamin E TPGS 2%, no Asc., N2 −, API 0.04%, 25° C., t = 7 d
[35] = vitamin E TPGS 2%, no Asc., N2 −, API 0.04%, 25° C., t = 14 d
[36] = vitamin E TPGS 2%, no Asc., N2 −, API 0.04%, 25° C., t = 28 d
[37] = vitamin E TPGS 2%, no Asc., N2 −, API 0.04%, t = 0

With `CN(C)[C@]1(c2cccc(F)c2)CC[C@]2(CC1)c1[nH]c3ccccc3c1CCN2C(=O)/C=C/c1ccccc1` [API, cis-(E)-4-(3-fluorophenyl)-2′,3′,4′,9′-tetrahydro-N,N-dimethyl-2′-(1-oxo-3-phenyl-2-propenyl)-spiro[cyclohexane-1,1′[1H]-pyrido[3,4-b]indol]-4-amine] the Assay [1] was 93.95 µg/mL, the Impurities [1] was 0.85 % (a/a) and the Assay [2] was 93.15 µg/mL. The Impurities [2] was 0.63 % (a/a), the Assay [3] was 92.96 µg/mL and the Impurities [3] was 0.66 % (a/a). The Assay [4] was 93.12 µg/mL, the Impurities [4] was 0.82 % (a/a) and the Assay [5] was 93.21 µg/mL. For the same compound, the Impurities [5] was 1.15 % (a/a), the Assay [6] was 93.12 µg/mL and the Impurities [6] was 0.74 % (a/a). For the same compound, the Assay [7] was 93.69 µg/mL, the Impurities [7] was 1.01 % (a/a) and the Assay [8] was 93.67 µg/mL. For the same compound, the Impurities [8] was 0.80 % (a/a), the Assay [9] was 92.32 µg/mL and the Impurities [9] was 0.63 % (a/a). For the same compound, the Assay [10] was 218.73 µg/mL, the Impurities [10] was 0.72 % (a/a) and the Assay [11] was 218.92 µg/mL. For the same compound, the Impurities [11] was 0.95 % (a/a), the Assay [12] was 219.23 µg/mL and the Impurities [12] was 0.68 % (a/a). For the same compound, the Assay [13] was 209.88 µg/mL, the Impurities [13] was 1.22 % (a/a) and the Assay [14] was 210.66 µg/mL. The Impurities [14] was 1.08 % (a/a), the Assay [15] was 190.68 µg/mL and the Impurities [15] was 1.54 % (a/a). The Assay [16] was 217.91 µg/mL, the Impurities [16] was 0.62 % (a/a) and the Assay [17] was 222.15 µg/mL. The Impurities [17] was 0.75 % (a/a), the Assay [18] was 226.12 µg/mL and the Impurities [18] was 0.85 % (a/a). For the same compound, the Assay [19] was 225.09 µg/mL, the Impurities [19] was 0.79 % (a/a) and the Assay [20] was 222.30 µg/mL. The Impurities [20] was 0.92 % (a/a), the Assay [21] was 213.85 µg/mL and the Impurities [21] was 1.58 % (a/a). The Assay [22] was 197.06 µg/mL, the Impurities [22] was 1.67 % (a/a) and the Assay [23] was 218.96 µg/mL. The Impurities [23] was 0.63 % (a/a), the Assay [24] was 216.81 µg/mL and the Impurities [24] was 0.53 % (a/a). The Assay [25] was 216.54 µg/mL, the Impurities [25] was 0.71 % (a/a) and the Assay [26] was 216.93 µg/mL. For the same compound, the Impurities [26] was 0.46 % (a/a), the Assay [27] was 215.81 µg/mL and the Impurities [27] was 0.57 % (a/a). The Assay [28] was 215.34 µg/mL, the Impurities [28] was 0.82 % (a/a) and the Assay [29] was 217.45 µg/mL. The Impurities [29] was 0.72 % (a/a), the Assay [30] was 214.85 µg/mL and the Impurities [30] was 0.58 % (a/a). The Assay [31] was 214.61 µg/mL, the Impurities [31] was 0.37 % (a/a) and the Assay [32] was 214.30 µg/mL. The Impurities [32] was 0.72 % (a/a), the Assay [33] was 214.68 µg/mL and the Impurities [33] was 0.49 % (a/a). For the same compound, the Assay [34] was 214.19 µg/mL, the Impurities [34] was 0.54 % (a/a) and the Assay [35] was 213.44 µg/mL. For the same compound, the Impurities [35] was 0.80 % (a/a), the Assay [36] was 215.45 µg/mL and the Impurities [36] was 0.67 % (a/a). For the same compound, the Assay [37] was 212.92 µg/mL, the Impurities [37] was 0.60 % (a/a) and the “sum of all impurities” value (storage temperature of 6° C., all compositions, up to 28 days) was “below 1 % (a/a)”.
